Patent publication US12116353B1, “Crystalline chloro-n-(4-(morpholinomethyl)phenyl)benzamide and crystalline hydrochloride salt” (GEN1E LIFESCIENCES INC., priority 2024, dated 2024)
Values after ≈ are worked out from the molar mass of the structure shown.

Experiment: Equilibrium solubility in aqueous buffers
Format: physicochemical
Conditions: thermodynamic from solid, LC-MS/MS
Method: The equilibrium solubility of crystalline compound (1) and crystalline compound (2) was measured in various aqueous buffers. The pH 4.0 and pH 5.0 buffers were prepared by combining 50 mL of 0.2 M potassium biphthalate with 150 mL of H2O, and then adjusting to pH 4.0 or pH 5.0 with 10 N HCl. The pH 6.0 buffer was prepared by combining 50 mL of 0.2 M KH2PO4 with 150 mL of H2O, and then adjusting to pH 6.0 with 10 N NaOH. The pH 7.4 buffer was prepared by combining 50 mL of 0.2 M KH2PO4 with 150 mL of H2O, and then adjusting to pH 7.4 with 10 N NaOH. At least 1 mg of powder for each compound was combined with 1 mL of each buffer to make a saturated mixture. The samples were shaken overnight on a Thermomixer® at room temperature. The samples were then passed through a […] PTFE syringe filter. The filtrate was sampled and diluted in duplicate as appropriate into a mixture of 1:1 buffer:acetonitrile (ACN) prior to analysis. All samples were assayed by LC-MS/MS using electrospray ionization against standards prepared in a mixture of 1:1 assay buffer:ACN. Standard concentrations ranged from 1.0 μM to 0.3 nM. The samples were analyzed by LCMS using a Waters Acuity® UPLC BEH Phenyl 30×2.1 mm, 1.7 μm liquid chromatography column and a PE Sciex® API 4000 mass spectrometer equipped with a Turbo Ionspray.

Row | solubility (aqueous potassium biphthalate buffer, aqueous buffer pH 4.0, shaken overnight at room temperature) [mM] | solubility (aqueous potassium biphthalate buffer, aqueous buffer pH 5.0, shaken overnight at room temperature) [mM] | solubility (aqueous potassium phosphate (KH2PO4) buffer, aqueous buffer pH 6.0, shaken overnight at room temperature) [mM] | solubility (aqueous potassium phosphate (KH2PO4) buffer, aqueous buffer pH 7.4, shaken overnight at room temperature) [mM] | SMILES
1 | 12.5 | 10.2 | 8.17 | – | Cl.O=C(Nc1ccc(CN2CCOCC2)cc1)c1ccc(Cl)cc1 [Crystalline Compound (1), 4-chloro-N-(4-(morpholinomethyl)phenyl)benzamide hydrochloride]
2 | – | – | – | 0.0125 (≈ 4.14 µg/mL) | O=C(Nc1ccc(CN2CCOCC2)cc1)c1ccc(Cl)cc1 [Crystalline Compound (2), 4-chloro-N-(4-(morpholinomethyl)phenyl)benzamide]
